Reference: PubChem BioAssay AID1919003 (Molecular Pharmacology Branch, DTP, NCI, 2023)
“And” between values parts separate entries of the source, which are not always exact repeats. Identical values can stand only once.

Test system: 786-0 complex spheroids with HUVEC/MSC, growth % test/control
Test: Anticancer human tumor 786-0 cell line growth inhibition [AhR];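 further: compound exposure lasted seven days before the read-out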
Conditions: for viability, T/C: stronger effect = lower value
Description: Multicellular complex tumor spheroid response to aryl hydrocarbon receptor antagonists in combination with a variety of drugs and investigational agents in selected tumor cell lines
The current study was undertaken to assess response to aryl hydrocarbon receptor antagonists in combination with standard-of-care drugs and investigational agents in solid tumor complex spheroid models. Complex spheroids include a stromal component modeled by human endothelial cells (HUVEC) and fibroblasts modeled by human mesenchymal stem cells (MSCs). The concentration ranges selected for each drug and investigational agent were based upon clinically achievable concentrations if the clinical Cmax of the agent was known.
Compounds. The drugs and investigational agents: BAY 2416964 (NSC825713), GNF351 (NSC835774), CH-223191 (NSC835775), CPI-455 (NSC825282), aza-TdCyd (NSC777586), decitabine (NSC127716), belinostat (NSC758774), entinostat (NSC756642), pevonedistat (NSC761192), tazemetostat (NSC777109), talazoparib (NSC765396), olaparib (NSC753686), selinexor (NSC780203), nedisertib (M3814, NSC802822), bortezomib (NSC756655), venetoclax (NSC766270), doxorubicin (NSC123127), elimusertib (BAY189344, NSC800525), ceralasertib (AZD6738, NSC777638), TAK-243 (NSC785004), alisertib (NSC759677), etoposide (NSC141540), topotecan (NSC609699), eribulin (NSC707389), gemcitabine (NSC613327), carboplatin (NSC241240), cisplatin (NSC119875), and SN-38 (NSC673596) were obtained from the National Cancer Institute (NCI) Developmental Therapeutics Program Chemical Repository (32). The FDA-approved anticancer drug set is available from the Developmental Therapeutics Program at https://dtp.cancer.gov/organization/dscb/obtaining/available plates.htm. […] The stock solutions were prepared in dimethyl sulfoxide (DMSO, Sigma-Aldrich, St. Louis, MO, cat. D2650), except for the platinum compounds which were prepared in saline (Quality Biological, Gaithersburg, MD, cat. 114-055-101), at 800-fold the tested concentration and stored at -70 degrees C prior to their use. All drugs and investigational agents were tested over a range starting from a high concentration at or near the clinical Cmax and decreasing in half-log increments. If the clinical Cmax for an agent had not been determined, the highest concentration tested was 10 microM (Table 1).
Cell Culture. All cells were maintained in an incubator at 37 degrees C and 5% CO2 with 95% humidity. The PDC lines were cultured according to standard operating procedures established by the NCI PDMR (https://pdmr.cancer.gov). Briefly, all PDCs were thawed and cultured in Matrigel-coated flasks prepared with a working solution of 1X Ham's F-12 nutrient mix, without supplementation (Invitrogen, Waltham, MA, cat. 11765054), 100 U/mL penicillin-streptomycin (Invitrogen, cat. 15140122), and 2.5% Matrigel (Corning Inc., Corning, NY, cat. 354248) for the first three passages. All PDCs were cultured in complete DMEM/F-12 media containing advanced DMEM/F-12 (Invitrogen, cat. 12634028), 4.9% defined fetal bovine serum, heat inactivated (HyClone Laboratories Inc., Logan, UT, cat. SH30070.03HI), 389 ng/mL hydrocortisone (Sigma-Aldrich, cat. H4001), 9.7 ng/mL human EGF recombinant protein (Invitrogen, cat. PHG0313), 23.4 microg/mL adenine (Sigma-Aldrich, cat. A2786), 97.3 U/mL penicillin-streptomycin (Invitrogen, cat. 15140122), 1.9 mM L-glutamine (Invitrogen, cat. 25030081), and 9.7 microM Y-27632 dihydrochloride (Tocris Bioscience, Bristol, United Kingdom, cat. 1254). The PDCs were cultured in complete DMEM/F12 media without 10 microM Y-27632 dihydrochloride for at least two passages prior to the screen. The established cell lines NCI-H1341 and […] were cultured in DMEM/F-12, HEPES (Invitrogen, cat. 11330032), 5% defined fetal bovine serum (HyClone Laboratories Inc., cat. SH30070.03), ITS premix universal culture supplement [insulin (5 microg/mL), transferrin (5 microg/mL), and selenious acid (5 ng/mL)] […]

SMILES	IC50 (curve of compound)	viability, T/C (compound 0.0316 µM)	viability, T/C (compound 0.1 µM)	viability, T/C (compound 0.316 µM)	viability, T/C (compound 1 µM)	viability, T/C (compound 3.16 µM)	viability, T/C (compound 10 µM)	also measured
CC(C)CC(NC(=O)C(Cc1ccccc1)NC(=O)c1cnccn1)B(O)O (centres undefined)	12.3 nM and 18.4 nM and 7.53 nM							viability, T/C (compound 0.000949 µM): 100% and 102% and 98.1%; viability, T/C (compound 0.003 µM): 105% and 104% and 116%; viability, T/C (compound 0.00949 µM): 63.4% and 99.9% and 35.7%; viability, T/C (compound 0.03 µM): 3.86% and 13.5% and 0.66%; viability, T/C (compound 0.0949 µM): 0.45% and 1.34% and 0.4%; viability, T/C (compound 0.3 µM): 1.25% and 0.84% and 0.27%
CC(C)c1c(-c2ccccc2)nc2c(C#N)c[nH]n2c1=O	> 10000 nM	101% and 108% and 93.8%	106% and 99.9% and 109%	101% and 103% and 108%	105% and 101% and 100%	97.5% and 110% and 105%	99% and 98% and 97.1%	
CC(CO)NC(=O)c1cc(-c2ccc(Cl)cc2)nn(-c2cnn(C)c2)c1=O (centres undefined)			100% [middle of 20 runs]					IC50 (compound alone, run of 08/08/2022): > 10000 nM
CC1(C)CCC(CN2CCN(c3ccc(C(=O)NS(=O)(=O)c4ccc(NCC5CCOCC5)c([N+](=O)[O-])c4)c(Oc4cnc5[nH]ccc5c4)c3)CC2)=C(c2ccc(Cl)cc2)C1	> 10000 nM	99.3% and 109% and 105%	97.5% and 98.3% and 98%	102% and 108% and 99.2%	107% and 108% and 102%	101% and 97.3% and 81.5%	61.2% and 77.3% and 77.1%	
CC1COCCN1c1cc(-c2ccnn2C)c2ccnc(-c3ccn[nH]3)c2n1 (centres undefined)	123 nM and 209 nM and 118 nM	101% and 104% and 88.6%	56.4% and 92% and 57.7%	16.5% and 26.5% and 11.5%	4.64% and 9.13% and 3.92%			viability, T/C (compound 0.00316 µM): 104% and 102% and 103%; viability, T/C (compound 0.01 µM): 103% and 104% and 94.9%
CC1COCCN1c1cc(C2(S(C)(=N)=O)CC2)nc(-c2ccnc3[nH]ccc23)n1 (centres undefined)	4620 nM and 6580 nM and 2990 nM	110% and 102% and 98.7%	110% and 102% and 98.6%	96.8% and 101% and 93.2%	96.6% and 96.8% and 94%	64.5% and 88.2% and 47.7%	17.9% and 27.9% and 15.4%	
CCN(c1cc(-c2ccc(CN3CCOCC3)cc2)cc(C(=O)NCc2c(C)cc(C)[nH]c2=O)c1C)C1CCOCC1	> 3000 nM							viability, T/C (compound 0.00949 µM): 100% (2×) and 106%; viability, T/C (compound 0.03 µM): 98.8% and 111% and 109%; viability, T/C (compound 0.0949 µM): 105% and 96.5% and 96.9%; viability, T/C (compound 0.3 µM): 110% and 109% and 112%; viability, T/C (compound 0.949 µM): 110% and 109% and 102%; viability, T/C (compound 3 µM): 117% and 104% and 107%
CC[C@@]1(O)C(=O)OCc2c1cc1n(c2=O)Cc2cc3c(CN(C)C)c(O)ccc3nc2-1	44.7 nM and 53.3 nM and 57 nM	64.5% and 73.7% and 85.6%	16.4% and 21.4% and 16.1%					viability, T/C (compound 0.000316 µM): 105% and 100% and 103%; viability, T/C (compound 0.001 µM): 97.3% and 102% and 104%; viability, T/C (compound 0.00316 µM): 96.1% and 107% and 98%; viability, T/C (compound 0.01 µM): 97.8% and 106% and 109%
CCc1c2c(nc3ccc(O)cc13)-c1cc3c(c(=O)n1C2)COC(=O)[C@]3(O)CC	4.77 nM and 6.31 nM and 5.45 nM							viability, T/C (compound 0.000949 µM): 86.2% and 105% and 92.8%; viability, T/C (compound 0.003 µM): 71.8% and 98.8% and 87.3%; viability, T/C (compound 0.00949 µM): 17.6% and 23.2% and 15.3%; viability, T/C (compound 0.03 µM): 5.33% and 8.68% and 6.03%; viability, T/C (compound 0.0949 µM): 2.54% and 5.4% and 3.46%; viability, T/C (compound 0.3 µM): 2.09% and 4.14% and 2.23%
COc1cc(C2c3cc4c(cc3C(OC3OC5COC(C)OC5C(O)C3O)C3COC(=O)C23)OCO4)cc(OC)c1O (centres undefined)	951 nM and 572 nM and 989 nM	101% and 104% and 103%	100% and 95.1% and 109%	75% and 74.2% and 81.8%	46.5% and 25.8% and 49%	26.6% and 22.7% and 27%	5.89% and 5.81% and 13.3%	
COc1cc(Nc2ncc3c(n2)-c2ccc(Cl)cc2C(c2c(F)cccc2OC)=NC3)ccc1C(=O)O	3170 nM and 5260 nM and 2870 nM	94.7% and 108% and 91.5%	96% and 110% and 93.9%	98% and 122% and 107%	78.9% and 92.7% and 79.7%	50.9% and 63.2% and 48.5%	27.6% and 35% and 28.7%	
COc1ccc([C@@H](O)c2cc(-c3ncnc4cc(N5CCOCC5)ccc34)c(F)cc2Cl)nn1	> 10000 nM	96.7% and 103% and 114%	93.2% and 100% and 104%	98.7% and 110% and 115%	84.7% and 105% and 108%	91.4% and 103% and 111%	70.2% and 91.1% and 85.7%	
